Read-outs that look alike come from different tables or passages of the source.
Key:
HUVECs = assay: High-content imaging cytotoxicity in HUVECs, 24 h; assay type: cell-based, human; settings: Homo sapiens, HUVEC, 24 h, HUVECs; for viability at 0.01 µM / activity at 0.01 µM / viability at 0.1 µM / activity at 0.1 µM / viability at 1 µM / activity at 1 µM / viability at 10 µM / activity at 10 µM / viability at 100 µM / activity at 100 µM: 0.00 µM = 100.00; for viability at 0.1 µM / activity at 0.1 µM: 0.10 µM; for minimal effective concentration: top concentration 100.00 µM
Summary of the method: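 Point-of-departure values come from four-parameter logistic fits of vehicle-normalized (0.5% DMSO) imaging readouts, cutoff one SD of vehicle means, 100μM where no concentration–response. Cells: HUVEC monolayers, passages 1–5, treated 24 h at 37°C, 5% CO2, then Hoechst 33342/MitoTracker Orange/calcein AM stained, imaged at 10×.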

[1] = tested on: iCell endothelial cells (human iPSC-derived ECs); assay: High-content imaging cytotoxicity in iCell endothelial cells, 24 h; assay type: cell-based; settings: Homo sapiens, Endothelial cell, iPSC-EC, 24 hr; for viability at 0.1 µM / activity at 0.1 µM: 0.10 µM; for minimal effective concentration: top concentration 100.00 µM
Summary of the method: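 Readouts were vehicle-normalised and fitted to a four-parameter logistic model. POD was set at one SD beyond 0.5% DMSO control means, and 100 µM was assigned when no response was seen. Cells were monolayers of iCell endothelial cells imaged after 24 h compound exposure using nuclear, mitochondrial and calcein dyes.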

[2] = 24 hr, read-out: huvec.cyto.24hr
[3] = 24 hr, read-out: huvec.mito.24hr
[4] = 24 hr, read-out: huvec.mitoint.24hr
[5] = 24 hr, read-out: huvec.nma.24hr
[6] = 24 hrs, read-out: huvec.tc.24hrs
[7] = 0.00 µM control = 100.00, read-out: endo.cyto.24hr
[8] = 0.00 µM control = 100.00, read-out: endo.mito.24hr
[9] = 0.00 µM control = 100.00, read-out: endo.mitoint.24hr
[10] = 0.00 µM control = 100.00, read-out: endo.nma.24hr
[11] = 0.00 µM control = 100.00, read-out: endo.tc.24hrs

In the case of `Oc1ccc(-c2cccc(Cl)c2)cc1Cl` [4-OH PCB11], the viability at 0.01 µM (HUVECs; [2]) is reported as 113%, the activity at 0.01 µM (HUVECs; [3]) is reported as 112% and the activity at 0.01 µM (HUVECs; [4]) is reported as 86.8%. It also gave an activity at 0.01 µM (HUVECs; [5]) of 95.3%, a viability at 0.1 µM (HUVECs; [2]) of 87.7% and an activity at 0.1 µM (HUVECs; [3]) of 86.9%. For the same compound, the activity at 0.1 µM (HUVECs; [4]) was 109%, the activity at 0.1 µM (HUVECs; [5]) was 105% and the viability at 1 µM (HUVECs; [2]) was 97%. It also gave an activity at 1 µM (HUVECs; [3]) of 96.1%, an activity at 1 µM (HUVECs; [4]) of 101% and an activity at 1 µM (HUVECs; [5]) of 97.1%. The viability at 10 µM (HUVECs; [2]) was 43.8%, the activity at 10 µM (HUVECs; [3]) was 26.1% and the activity at 10 µM (HUVECs; [4]) was 10.9%. It also gave an activity at 10 µM (HUVECs; [5]) of 69.2%, a viability at 100 µM (HUVECs; [2]) of 34.6% and an activity at 100 µM (HUVECs; [3]) of 0.26%. The activity at 100 µM (HUVECs; [4]) was 2.7%, the activity at 100 µM (HUVECs; [5]) was 73.6% and the minimal effective concentration (HUVECs; 24 hr, read-out: huvec.cyto.24hr POD) was 1.37 µM. The minimal effective concentration (HUVECs; 24 hr, read-out: huvec.mito.24hr POD) was 1.2 µM, the minimal effective concentration (HUVECs; 24 hr, read-out: huvec.mitoint.24hr POD) was 5.43 µM and the minimal effective concentration (HUVECs; 24 hr, read-out: huvec.nma.24hr POD) was 0.99 µM. It also gave a viability at 0.01 µM (HUVECs; [6]) of 113%, a viability at 0.1 µM (HUVECs; [6]) of 87.7% and a viability at 1 µM (HUVECs; [6]) of 97%. It also gave a viability at 10 µM (HUVECs; [6]) of 44.1%, a viability at 100 µM (HUVECs; [6]) of 36.5% and a minimal effective concentration (HUVECs; 24 hrs, read-out: huvec.tc.24hrs POD) of 1.37 µM. For the same compound, the viability at 0.01 µM [1, 7] was 99.5%, the activity at 0.01 µM [1, 8] was 99.5% and the activity at 0.01 µM [1, 9] was 103%. The activity at 0.01 µM [1, 10] was 103%, the viability at 0.01 µM [1, 11] was 99.5% and the viability at 0.1 µM [1, 7] was 102%. The activity at 0.1 µM [1, 8] was 102%, the activity at 0.1 µM [1, 9] was 94.9% and the activity at 0.1 µM [1, 10] was 99.2%. For the same compound, the viability at 0.1 µM [1, 11] was 102%, the viability at 1 µM [1, 7] was 97.1% and the activity at 1 µM [1, 8] was 96.8%. For the same compound, the activity at 1 µM [1, 9] was 97.1%, the activity at 1 µM [1, 10] was 102% and the viability at 1 µM [1, 11] was 97.1%. For the same compound, the viability at 10 µM [1, 7] was 106%, the activity at 10 µM [1, 8] was 106% and the activity at 10 µM [1, 9] was 92.4%. It also gave an activity at 10 µM [1, 10] of 97.2%, a viability at 10 µM [1, 11] of 106% and a viability at 100 µM [1, 7] of 57.3%. For the same compound, the activity at 100 µM [1, 8] was 52.7%, the activity at 100 µM [1, 9] was 68% and the activity at 100 µM [1, 10] was 88%. The viability at 100 µM [1, 11] was 78.1%, the minimal effective concentration ([1]; read-out: endo.cyto.24hr POD) was 43.6 µM and the minimal effective concentration ([1]; read-out: endo.mito.24hr POD) was 43.6 µM. For the same compound, the minimal effective concentration ([1]; read-out: endo.mitoint.24hr POD) was 13 µM, the minimal effective concentration ([1]; read-out: endo.nma.24hr POD) was 9.66 µM and the minimal effective concentration ([1]; read-out: endo.tc.24hrs POD) was 62.1 µM.
